Source: the kinase profiling compilation of Christmann-Franck et al. (2016)
One block for each compound: values may come before it.

What was measured:
Test in all cases: radiometric filter-binding kinase assay
HIPK2 (human) = HIPK2 (human) (UniProt Q9H2X6)
PAK6 (human) = PAK6 (human) (UniProt Q9NQU5)
EPHB3 (human) = EPHB3 (human) (UniProt P54753); conditions: compound 10.0 µM
PLK1 (human) = PLK1 (human) (UniProt P53350)
GSK3B (human) = GSK3B (human) (UniProt P49841)
INSR (human) = INSR (human) (UniProt P06213)
ROCK2 (rat) = conditions: accession and sequence are those of the human protein
CAMKK2 (human) = CAMKK2 (human) (UniProt Q96RR4)
SRC (human) = SRC (human) (UniProt P12931)
SRC (human), sequence (P12931 whole entry, looked up): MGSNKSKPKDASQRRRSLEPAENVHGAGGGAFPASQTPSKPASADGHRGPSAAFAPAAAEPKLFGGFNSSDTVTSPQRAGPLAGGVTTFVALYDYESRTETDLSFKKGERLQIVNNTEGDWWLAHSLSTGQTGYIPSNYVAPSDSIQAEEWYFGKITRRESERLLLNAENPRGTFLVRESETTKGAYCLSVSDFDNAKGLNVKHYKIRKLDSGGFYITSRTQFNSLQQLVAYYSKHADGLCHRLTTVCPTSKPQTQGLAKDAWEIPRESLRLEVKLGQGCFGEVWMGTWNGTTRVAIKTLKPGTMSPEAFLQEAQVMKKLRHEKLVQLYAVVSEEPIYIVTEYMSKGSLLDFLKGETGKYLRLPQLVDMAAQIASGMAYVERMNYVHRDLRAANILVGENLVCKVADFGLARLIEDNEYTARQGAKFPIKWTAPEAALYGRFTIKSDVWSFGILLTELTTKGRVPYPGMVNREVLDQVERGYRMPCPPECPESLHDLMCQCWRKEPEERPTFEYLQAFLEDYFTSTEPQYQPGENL

PAK7 (human) = PAK7 (human) (UniProt Q9P286)
PAK7 (human), sequence (Q9P286 whole entry, looked up): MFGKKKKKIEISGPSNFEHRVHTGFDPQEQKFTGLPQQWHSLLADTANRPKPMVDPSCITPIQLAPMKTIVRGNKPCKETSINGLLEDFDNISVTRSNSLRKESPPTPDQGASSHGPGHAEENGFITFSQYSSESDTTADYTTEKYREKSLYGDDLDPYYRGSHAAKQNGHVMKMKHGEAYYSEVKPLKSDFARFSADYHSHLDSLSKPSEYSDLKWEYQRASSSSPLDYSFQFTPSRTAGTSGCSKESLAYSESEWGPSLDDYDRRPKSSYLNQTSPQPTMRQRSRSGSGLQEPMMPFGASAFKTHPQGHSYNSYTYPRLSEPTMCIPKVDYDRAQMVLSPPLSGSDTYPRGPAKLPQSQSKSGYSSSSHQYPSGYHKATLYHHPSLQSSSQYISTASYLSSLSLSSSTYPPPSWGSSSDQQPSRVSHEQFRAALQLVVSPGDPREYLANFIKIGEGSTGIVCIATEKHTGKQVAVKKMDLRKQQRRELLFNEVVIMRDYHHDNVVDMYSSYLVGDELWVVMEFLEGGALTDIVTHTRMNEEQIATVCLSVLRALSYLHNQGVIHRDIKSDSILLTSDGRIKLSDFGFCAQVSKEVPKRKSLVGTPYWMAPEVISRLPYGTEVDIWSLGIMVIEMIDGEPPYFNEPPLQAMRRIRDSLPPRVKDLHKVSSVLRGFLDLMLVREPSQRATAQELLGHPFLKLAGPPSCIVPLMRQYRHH

IGF1R (human) = IGF1R (human) (UniProt P08069); conditions: compound 1.0 µM
CSK (human) = CSK (human) (UniProt P41240)
RPS6KA5 KD1 KD2 (human) = RPS6KA5 KD1 KD2 (human) (UniProt O75582)
MAPK11 (human) = MAPK11 (human) (UniProt Q15759)
MAPK11 (human), sequence (Q15759 whole entry, looked up): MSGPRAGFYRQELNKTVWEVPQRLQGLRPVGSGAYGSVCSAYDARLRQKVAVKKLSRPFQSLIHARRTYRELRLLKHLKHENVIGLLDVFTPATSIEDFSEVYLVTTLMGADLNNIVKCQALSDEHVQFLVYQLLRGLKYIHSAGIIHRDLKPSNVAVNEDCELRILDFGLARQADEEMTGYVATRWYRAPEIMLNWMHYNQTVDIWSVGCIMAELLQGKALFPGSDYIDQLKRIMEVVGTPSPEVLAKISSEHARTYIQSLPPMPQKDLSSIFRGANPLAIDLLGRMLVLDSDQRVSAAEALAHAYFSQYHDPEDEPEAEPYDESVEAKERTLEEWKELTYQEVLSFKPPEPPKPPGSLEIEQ

MAPK13 (human) = MAPK13 (human) (UniProt O15264)
MAPK13 (human), sequence (O15264 whole entry, looked up): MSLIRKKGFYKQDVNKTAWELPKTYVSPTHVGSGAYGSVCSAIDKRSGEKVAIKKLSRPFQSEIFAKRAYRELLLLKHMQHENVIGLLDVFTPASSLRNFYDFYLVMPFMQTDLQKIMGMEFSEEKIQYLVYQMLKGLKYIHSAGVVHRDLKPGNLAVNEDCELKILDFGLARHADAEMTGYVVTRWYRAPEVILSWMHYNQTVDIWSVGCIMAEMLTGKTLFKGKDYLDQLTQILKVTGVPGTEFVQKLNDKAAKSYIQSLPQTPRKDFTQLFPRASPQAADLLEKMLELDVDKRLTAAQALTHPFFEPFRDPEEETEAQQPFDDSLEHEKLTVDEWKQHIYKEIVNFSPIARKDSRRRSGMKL

PKN2 (human) = PKN2 (human) (UniProt Q16513)
PKN2 (human), sequence (Q16513 whole entry, looked up): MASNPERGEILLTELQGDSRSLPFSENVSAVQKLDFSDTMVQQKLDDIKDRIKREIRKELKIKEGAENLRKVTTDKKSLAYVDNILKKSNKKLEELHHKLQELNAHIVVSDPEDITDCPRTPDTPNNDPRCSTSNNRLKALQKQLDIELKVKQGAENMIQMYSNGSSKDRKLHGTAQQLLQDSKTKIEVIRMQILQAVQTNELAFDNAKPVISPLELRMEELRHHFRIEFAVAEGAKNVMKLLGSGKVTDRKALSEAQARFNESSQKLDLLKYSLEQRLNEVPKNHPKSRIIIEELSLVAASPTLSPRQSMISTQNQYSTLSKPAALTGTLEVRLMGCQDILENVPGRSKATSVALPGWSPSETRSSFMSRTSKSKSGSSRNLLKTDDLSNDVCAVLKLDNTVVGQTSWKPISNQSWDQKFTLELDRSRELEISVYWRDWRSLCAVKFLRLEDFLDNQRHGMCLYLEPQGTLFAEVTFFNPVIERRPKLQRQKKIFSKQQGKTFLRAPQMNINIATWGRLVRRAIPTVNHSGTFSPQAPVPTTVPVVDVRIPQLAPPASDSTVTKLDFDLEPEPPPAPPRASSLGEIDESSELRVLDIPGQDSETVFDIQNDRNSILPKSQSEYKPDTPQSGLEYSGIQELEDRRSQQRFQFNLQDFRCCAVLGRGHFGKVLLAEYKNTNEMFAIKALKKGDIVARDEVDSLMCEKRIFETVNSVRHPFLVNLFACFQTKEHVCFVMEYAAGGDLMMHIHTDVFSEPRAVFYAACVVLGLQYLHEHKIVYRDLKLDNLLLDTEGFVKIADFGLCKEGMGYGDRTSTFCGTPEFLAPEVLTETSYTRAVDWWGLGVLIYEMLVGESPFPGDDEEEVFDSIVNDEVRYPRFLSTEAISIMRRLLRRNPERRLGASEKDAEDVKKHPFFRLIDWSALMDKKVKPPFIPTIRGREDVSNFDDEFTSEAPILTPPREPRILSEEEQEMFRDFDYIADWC

PRKCZ (human) = PRKCZ (human) (UniProt Q05513)
PRKCZ (human), sequence (Q05513 whole entry, looked up): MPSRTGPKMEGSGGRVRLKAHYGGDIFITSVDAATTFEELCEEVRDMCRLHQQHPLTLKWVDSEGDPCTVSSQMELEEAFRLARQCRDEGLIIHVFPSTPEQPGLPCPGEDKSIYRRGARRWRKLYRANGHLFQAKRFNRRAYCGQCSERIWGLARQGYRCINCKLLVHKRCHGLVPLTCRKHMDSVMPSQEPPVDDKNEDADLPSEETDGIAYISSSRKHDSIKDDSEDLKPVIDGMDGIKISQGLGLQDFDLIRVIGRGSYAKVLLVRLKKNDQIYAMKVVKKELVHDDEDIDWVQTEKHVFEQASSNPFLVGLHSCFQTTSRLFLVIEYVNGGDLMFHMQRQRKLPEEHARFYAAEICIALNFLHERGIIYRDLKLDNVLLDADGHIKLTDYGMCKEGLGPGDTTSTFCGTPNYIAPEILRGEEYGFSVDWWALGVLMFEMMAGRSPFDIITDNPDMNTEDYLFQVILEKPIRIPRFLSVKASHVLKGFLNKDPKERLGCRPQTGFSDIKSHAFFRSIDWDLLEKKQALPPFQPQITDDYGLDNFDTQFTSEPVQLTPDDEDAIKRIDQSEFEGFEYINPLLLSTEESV

[1] = test system: AKT2 (human), P31751 [S474D]
LCK (mouse) = conditions: accession and sequence are those of the human protein
BRSK2 (human) = BRSK2 (human) (UniProt Q8IWQ3)
BRSK2 (human), sequence (Q8IWQ3 whole entry, looked up): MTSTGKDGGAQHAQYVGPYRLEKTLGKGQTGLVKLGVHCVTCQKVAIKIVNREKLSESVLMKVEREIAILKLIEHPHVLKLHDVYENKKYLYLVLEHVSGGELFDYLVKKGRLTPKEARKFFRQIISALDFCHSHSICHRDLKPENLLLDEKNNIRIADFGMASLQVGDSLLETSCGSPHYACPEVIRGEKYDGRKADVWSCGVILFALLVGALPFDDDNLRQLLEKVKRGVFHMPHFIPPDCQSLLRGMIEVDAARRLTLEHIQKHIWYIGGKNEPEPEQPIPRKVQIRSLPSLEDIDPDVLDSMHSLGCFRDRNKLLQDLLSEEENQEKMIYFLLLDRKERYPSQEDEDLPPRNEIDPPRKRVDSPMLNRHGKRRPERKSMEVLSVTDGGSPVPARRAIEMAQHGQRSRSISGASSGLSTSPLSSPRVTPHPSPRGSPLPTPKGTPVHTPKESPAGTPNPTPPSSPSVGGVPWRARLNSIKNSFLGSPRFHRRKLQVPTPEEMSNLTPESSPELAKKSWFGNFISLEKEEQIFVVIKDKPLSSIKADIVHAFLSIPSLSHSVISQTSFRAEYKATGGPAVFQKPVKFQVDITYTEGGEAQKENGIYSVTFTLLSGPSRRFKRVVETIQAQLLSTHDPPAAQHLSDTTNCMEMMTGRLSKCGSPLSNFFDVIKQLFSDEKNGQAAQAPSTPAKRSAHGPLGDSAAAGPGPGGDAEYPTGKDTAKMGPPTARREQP

PRKAA1 or PRKAA2 (rat) = conditions: accession and sequence are those of the human protein
YES1 (human) = YES1 (human) (UniProt P07947)
SYK (human) = SYK (human) (UniProt P43405)
MAPK1 (human) = MAPK1 (human) (UniProt P28482)
HIPK3 (human) = HIPK3 (human) (UniProt Q9H422)

PLK1 (human), sequence (P53350 whole entry, looked up): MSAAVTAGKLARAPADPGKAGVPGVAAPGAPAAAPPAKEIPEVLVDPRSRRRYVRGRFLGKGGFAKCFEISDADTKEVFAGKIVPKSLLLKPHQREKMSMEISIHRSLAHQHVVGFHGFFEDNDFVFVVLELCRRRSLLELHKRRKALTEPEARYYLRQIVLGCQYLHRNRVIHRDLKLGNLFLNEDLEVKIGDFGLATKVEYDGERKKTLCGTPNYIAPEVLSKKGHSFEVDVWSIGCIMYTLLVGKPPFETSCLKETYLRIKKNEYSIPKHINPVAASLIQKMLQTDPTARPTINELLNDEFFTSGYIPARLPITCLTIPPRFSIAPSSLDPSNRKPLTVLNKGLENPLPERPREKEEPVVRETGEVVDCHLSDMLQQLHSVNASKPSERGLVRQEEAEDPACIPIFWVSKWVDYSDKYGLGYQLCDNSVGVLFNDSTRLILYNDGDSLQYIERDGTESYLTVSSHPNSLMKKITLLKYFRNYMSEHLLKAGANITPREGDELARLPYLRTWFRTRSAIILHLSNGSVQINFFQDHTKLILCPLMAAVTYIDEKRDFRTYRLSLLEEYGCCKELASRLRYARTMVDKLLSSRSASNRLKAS

residual activity (HIPK2 (human); compound 1.0 µM): 101%
residual activity (HIPK2 (human); compound 10.0 µM): 156%
residual activity (PAK6 (human); compound 1.0 µM): 97%
residual activity (PAK6 (human); compound 10.0 µM): 109%
residual activity (EPHB3 (human)): 115%
residual activity (PLK1 (human); compound 1.0 µM): 75%
residual activity (PLK1 (human); compound 10.0 µM): 60%
residual activity (GSK3B (human); compound 1.0 µM): 87%
residual activity (GSK3B (human); compound 10.0 µM): 83%
residual activity (INSR (human); compound 1.0 µM): 107%
residual activity (INSR (human); compound 10.0 µM): 103%
residual activity (ROCK2 (rat); compound 1.0 µM): 99%
residual activity (ROCK2 (rat); compound 10.0 µM): 91%
residual activity (CAMKK2 (human); compound 1.0 µM): 86%
residual activity (CAMKK2 (human); compound 10.0 µM): 83%
residual activity (SRC (human); compound 1.0 µM): 87%
residual activity (SRC (human); compound 10.0 µM): 70%
residual activity (PAK7 (human); compound 1.0 µM): 97%
residual activity (PAK7 (human); compound 10.0 µM): 111%
residual activity (IGF1R (human)): 87%
residual activity (CSK (human); compound 1.0 µM): 98%
residual activity (CSK (human); compound 10.0 µM): 97%
residual activity (RPS6KA5 KD1 KD2 (human); compound 1.0 µM): 96%
residual activity (RPS6KA5 KD1 KD2 (human); compound 10.0 µM): 92%
residual activity (MAPK11 (human); compound 1.0 µM): 91%
residual activity (MAPK11 (human); compound 10.0 µM): 94%
residual activity (MAPK13 (human); compound 1.0 µM): 102%
residual activity (MAPK13 (human); compound 10.0 µM): 105%
residual activity (PKN2 (human); compound 1.0 µM): 102%
residual activity (PKN2 (human); compound 10.0 µM): 92%
residual activity (PRKCZ (human); compound 1.0 µM): 79%
residual activity (PRKCZ (human); compound 10.0 µM): 74%
residual activity ([1]; compound 1.0 µM): 103%
residual activity ([1]; compound 10.0 µM): 103%
residual activity (LCK (mouse); compound 1.0 µM): 106%
residual activity (LCK (mouse); compound 10.0 µM): 98%
residual activity (BRSK2 (human); compound 1.0 µM): 91%
residual activity (BRSK2 (human); compound 10.0 µM): 78%
residual activity (PRKAA1 or PRKAA2 (rat); compound 1.0 µM): 94%
residual activity (PRKAA1 or PRKAA2 (rat); compound 10.0 µM): 91%
residual activity (YES1 (human); compound 1.0 µM): 98%
residual activity (YES1 (human); compound 10.0 µM): 102%
residual activity (SYK (human); compound 1.0 µM): 103%
residual activity (SYK (human); compound 10.0 µM): 85%
residual activity (MAPK1 (human); compound 1.0 µM): 100%
residual activity (MAPK1 (human); compound 10.0 µM): 102%
Compound: Cc1cc(SCc2sc(-c3ccc(C(F)(F)F)cc3)nc2C)ccc1OCC(=O)O

residual activity (HIPK2 (human); compound 1.0 µM): 124%
residual activity (HIPK2 (human); compound 10.0 µM): 125%
residual activity (HIPK3 (human); compound 1.0 µM): 136%
residual activity (HIPK3 (human); compound 10.0 µM): 138%
residual activity (PAK6 (human); compound 1.0 µM): 103%
residual activity (PAK6 (human); compound 10.0 µM): 102%
residual activity (PLK1 (human); compound 1.0 µM): 96%
residual activity (PLK1 (human); compound 10.0 µM): 106%
residual activity (GSK3B (human); compound 1.0 µM): 114%
residual activity (GSK3B (human); compound 10.0 µM): 133%
residual activity (ROCK2 (rat); compound 1.0 µM): 117%
residual activity (ROCK2 (rat); compound 10.0 µM): 106%
residual activity (CAMKK2 (human); compound 1.0 µM): 125%
residual activity (CAMKK2 (human); compound 10.0 µM): 117%
residual activity (SRC (human); compound 1.0 µM): 97%
residual activity (SRC (human); compound 10.0 µM): 100%
residual activity (PAK7 (human); compound 1.0 µM): 139%
residual activity (PAK7 (human); compound 10.0 µM): 124%
residual activity (CSK (human); compound 1.0 µM): 97%
residual activity (CSK (human); compound 10.0 µM): 85%
residual activity (RPS6KA5 KD1 KD2 (human); compound 1.0 µM): 92%
residual activity (RPS6KA5 KD1 KD2 (human); compound 10.0 µM): 100%
residual activity (MAPK11 (human); compound 1.0 µM): 131%
residual activity (MAPK11 (human); compound 10.0 µM): 111%
residual activity (MAPK13 (human); compound 1.0 µM): 101%
residual activity (MAPK13 (human); compound 10.0 µM): 105%
residual activity (PKN2 (human); compound 1.0 µM): 119%
residual activity (PKN2 (human); compound 10.0 µM): 110%
residual activity (PRKCZ (human); compound 1.0 µM): 89%
residual activity (PRKCZ (human); compound 10.0 µM): 112%
residual activity ([1]; compound 1.0 µM): 95%
residual activity ([1]; compound 10.0 µM): 100%
residual activity (LCK (mouse); compound 1.0 µM): 125%
residual activity (LCK (mouse); compound 10.0 µM): 131%
residual activity (BRSK2 (human); compound 1.0 µM): 102%
residual activity (BRSK2 (human); compound 10.0 µM): 100%
residual activity (PRKAA1 or PRKAA2 (rat); compound 1.0 µM): 111%
residual activity (PRKAA1 or PRKAA2 (rat); compound 10.0 µM): 114%
residual activity (MAPK1 (human); compound 1.0 µM): 116%
residual activity (MAPK1 (human); compound 10.0 µM): 111%
Compound: Cc1cccc(Nc2nn(C)c3ncnc(N)c23)c1
